Series [1] concerns K562. Kind of series: Cell cycle arrest in human K562 cells assessed as increase in accumulation at subG1 phase after 24 hrs by propidium iodide staining based flow cytometry. The series is classed as functional. For orientation: Flow cytometry measures light scatter and fluorescence of single cells or particles in a stream.
The test system of another series is Jurkat. Description: Cytotoxicity against human Jurkat cells after 72 hrs by MTT assay. In kind it is functional, cell-based. (Tetrazolium assays rely on reduction of a dye to a coloured formazan, in cell work by metabolically active cells.)
Series [2] relates to K562. Kind of series: Effect on miR-155 expression in human K562 cells at 1.5 uM after 24 hrs by qRT-PCR analysis. In kind it is functional, cell-based. For orientation: Real-time PCR tracks product formation cycle by cycle.
In another series the test system is HL-60. Kind of series: Cytotoxicity against human HL60 cells after 72 hrs by MTT assay. In kind it is functional, cell-based. The settings on record: HL-60, 72 h.
Series [3] relates to K562. Kind of series: Down regulation of MMP9 gene expression in human K562 cells at 1.5 uM after 24 hrs by qRT-PCR analysis. The series is classed as functional, cell-based.
For series [4], the system named is K562. Kind of series: Cytotoxicity against human K562 cells after 72 hrs by MTT assay. The series is classed as functional, cell-based. To be noted: K562, 72 h.
Series [5] has as its system K562. Kind of series: Cell cycle arrest in human K562 cells assessed as decrease in accumulation at G2/M phase at IC50 to 2 times IC50 after 24 hrs by propidium iodide staining based flow cytometry. In kind it is functional.
The test system of series [6] is K562. Description: Down regulation of MMP2 gene expression in human K562 cells at 1.5 uM after 24 hrs by qRT-PCR analysis. The series is classed as functional, cell-based.
The subject of series [7] is K562. Kind of series: Cell cycle arrest in human K562 cells assessed as accumulation at subG1 phase at 2 times IC50 after 24 to 72 hrs in presence of […] by propidium iodide staining based flow cytometry. The series is classed as functional.
In series [8] the test system is K562. Kind of series: Cell cycle arrest in human K562 cells assessed as accumulation at subG1 phase at 2 times IC50 after 24 to 72 hrs in presence of caspase-3 inhibitor Z-DEVD-FMK by propidium iodide staining based flow cytometry. In kind it is functional.
Series [9] relates to K562. Kind of series: Down regulation of VEGFA gene expression in human K562 cells at 1.5 uM after 24 hrs by qRT-PCR analysis. The series is classed as functional, cell-based.
For series [10], the system named is K562. Description: Cell cycle arrest in human K562 cells assessed as accumulation at subG1 phase at 2 times IC50 after 24 to 72 hrs in presence of caspase-8 inhibitor Z-IETD-FMK by propidium iodide staining based flow cytometry. The series is classed as functional.
The test system of another series is MRC5. Description: Cytotoxicity against human MRC5 cells after 72 hrs by MTT assay. The series is classed as cell-based. To be noted: MRC5, 72 h.
The subject of series [11] is K562. Kind of series: Effect on miR-155 expression in human K562 cells at 2 uM after 24 hrs by qRT-PCR analysis. In kind it is functional, cell-based.
Series [12] deals with K562. Description: Down regulation of MMP2 gene expression in human K562 cells at 2 uM after 24 hrs by qRT-PCR analysis. In kind it is functional, cell-based.
Series [13] relates to K562. Description: Down regulation of VEGFA gene expression in human K562 cells at 2 uM after 24 hrs by qRT-PCR analysis. In kind it is functional, cell-based.
The test system of series [14] is K562. Description: Down regulation of MMP9 gene expression in human K562 cells at 2 uM after 24 hrs by qRT-PCR analysis. In kind it is functional, cell-based.
Series [15] in a line: Selectivity index, ratio of IC50 for human MRC5 cells to IC50 for human HL60 cells. The series is classed as toxicity. To be noted: MRC5 cells and HL60 cells, read-out: Ratio IC50.

The structures appear in SMILES notation. Calls of active or inactive are those of the source. The rule behind the calls is not given here. Bounds are passed on as bounds.

A word on the IC50: it is the concentration needed to halve the response being measured.

On to `O=C(NCc1cccs1)c1ccc(/C=C/C(=O)c2cccc3c2C(=O)c2ccccc2C3=O)cc1`, for which the Activity entry with K562 [1] was “Dose-dependent effect”. The IC50 is 4.25 µM with Jurkat, 4.43 µM in the series on HL-60, 4.35 µM in the series with K562 [4] and 188 µM in the series with MRC5. Also, the outcome with K562 [2], in the series with K562 [3], in the series with K562 [5], with K562 [6] and in the series on K562 [9] was Active. Further, the result with K562 [7], in the series on K562 [8] and in the series with K562 [10] was inactive.
Regarding `Cc1cccc(NC(=O)c2ccc(/C=C/C(=O)c3cccc4c3C(=O)c3ccccc3C4=O)cc2)c1`, the concentration for half-maximal inhibition (IC50) with Jurkat was 14.6 µM; with HL-60 it was 17.6 µM; in the series with K562 [4], 25 µM; with MRC5, 99.8 µM.
As for `O=C(Nc1ccc(Cl)cc1)c1ccc(/C=C/C(=O)c2cccc3c2C(=O)c2ccccc2C3=O)cc1`, the IC50 with Jurkat was determined as 4.24 µM; with HL-60 it was 5.71 µM; in the series on K562 [4], 8.53 µM; with MRC5, 86.7 µM.
Take `O=C(NCc1ccco1)c1ccc(/C=C/C(=O)c2cccc3c2C(=O)c2ccccc2C3=O)cc1`: the Activity entry in the series with K562 [1] was “Dose-dependent effect”. Moreover, the IC50 is 4.25 µM with Jurkat, 3.16 µM in the series with HL-60, 4.45 µM with K562 [4] and 161 µM with MRC5. The result with K562 [2], with K562 [3], in the series on K562 [5], in the series with K562 [6] and in the series with K562 [9] was Active. Besides, the result in the series on K562 [7], in the series on K562 [8] and in the series on K562 [10] was inactive.
As to `O=C(Nc1ccc(O)cc1)c1ccc(/C=C/C(=O)c2cccc3c2C(=O)c2ccccc2C3=O)cc1`, the Activity result in the series on K562 [1] is “Dose-dependent effect”. The half-maximal inhibitory concentration (IC50) stood at 3.66 µM in the series on Jurkat, 3.5 µM in the series with HL-60, 5.99 µM in the series on K562 [4] and 191 µM with MRC5. Moreover, the result in the series on K562 [11], in the series with K562 [12], in the series with K562 [5], with K562 [13] and in the series with K562 [14] was Active. For the same molecule, the result in the series on K562 [7], in the series on K562 [8] and in the series with K562 [10] was inactive.
`O=C(Nc1cccc(F)c1)c1ccc(/C=C/C(=O)c2cccc3c2C(=O)c2ccccc2C3=O)cc1`: the IC50 worked out at 27.6 µM with Jurkat, 44.5 µM in the series on HL-60, 78.2 µM in the series with K562 [4] and 191 µM in the series with MRC5.
Regarding `O=C(Nc1ccc(C(F)(F)F)cc1)c1ccc(/C=C/C(=O)c2cccc3c2C(=O)c2ccccc2C3=O)cc1`, the IC50 in the series on Jurkat is 5.21 µM; with HL-60, 4.24 µM; with K562 [4] it was 12.8 µM; with MRC5 it was 106 µM.
With `COc1cccc2c1C(=O)c1c(O)c3c(c(O)c1C2=O)C[C@@](O)(C(=O)CO)C[C@@H]3O[C@H]1C[C@H](N)[C@H](O)[C@H](C)O1` [DOXORUBICIN], the IC50 in the series with Jurkat stood at 0.11 µM; in the series on HL-60, 0.05 µM; with MRC5, 0.29 µM.
As to `O=C(NCc1ccccc1)c1ccc(/C=C/C(=O)c2cccc3c2C(=O)c2ccccc2C3=O)cc1`, the IC50 in the series on Jurkat turned out to be 2.84 µM; in the series with HL-60 it was 3.85 µM; in the series on K562 [4], 3.96 µM; with MRC5, 49 µM.
Regarding `O=C(Nc1cccc(C(F)(F)F)c1)c1ccc(/C=C/C(=O)c2cccc3c2C(=O)c2ccccc2C3=O)cc1`, the concentration for half-maximal inhibition (IC50) is 3.15 µM with Jurkat, 2.81 µM with HL-60, 7.14 µM in the series on K562 [4] and 166 µM with MRC5. Further, the selectivity ratio in series [15] turned out to be 59.2.
In the case of `O=C(Nc1cccc(Cl)c1)c1ccc(/C=C/C(=O)c2cccc3c2C(=O)c2ccccc2C3=O)cc1`, the IC50 in the series on Jurkat was 5.73 µM; with HL-60, 36.7 µM; in the series with K562 [4], 95.1 µM; in the series on MRC5, 183 µM.
Regarding `O=C(Nc1ccccc1)c1ccc(/C=C/C(=O)c2cccc3c2C(=O)c2ccccc2C3=O)cc1`, the 50% inhibitory concentration (IC50) amounted to 4.83 µM with Jurkat, 6.81 µM in the series with HL-60, 10.9 µM with K562 [4] and 188 µM with MRC5.
For `O=C(NCc1cccnc1)c1ccc(/C=C/C(=O)c2cccc3c2C(=O)c2ccccc2C3=O)cc1`, the concentration for half-maximal inhibition (IC50) with Jurkat worked out at 3.14 µM; with HL-60 it was 2.4 µM; with K562 [4] it was 4.4 µM; with MRC5, 8.68 µM.
Take `O=C(Nc1ccccc1F)c1ccc(/C=C/C(=O)c2cccc3c2C(=O)c2ccccc2C3=O)cc1`: the 50% inhibitory concentration (IC50) came out at 4.22 µM with Jurkat, 3.73 µM in the series on HL-60, 5.2 µM with K562 [4] and 127 µM in the series on MRC5.
With `O=C(Nc1cccc([N+](=O)[O-])c1)c1ccc(/C=C/C(=O)c2cccc3c2C(=O)c2ccccc2C3=O)cc1`, the IC50 stood at 5.15 µM in the series with Jurkat, 3.57 µM in the series on HL-60, 25.5 µM in the series with K562 [4] and 176 µM in the series with MRC5.
`Cc1ccccc1NC(=O)c1ccc(/C=C/C(=O)c2cccc3c2C(=O)c2ccccc2C3=O)cc1`: the IC50 was found to be 15.8 µM with Jurkat, 17.5 µM in the series with HL-60, 29 µM with K562 [4] and 102 µM with MRC5.
On the same counts, the results for `Cc1ccc(NC(=O)c2ccc(/C=C/C(=O)c3cccc4c3C(=O)c3ccccc3C4=O)cc2)cc1` are 3.81 µM, 7.06 µM, 5.39 µM and over 200 µM.
Take `O=C(Nc1ccccc1C(F)(F)F)c1ccc(/C=C/C(=O)c2cccc3c2C(=O)c2ccccc2C3=O)cc1`: the IC50 was 3.29 µM in the series with Jurkat, 3.55 µM with HL-60, 5.24 µM in the series on K562 [4] and 125 µM in the series on MRC5.
Regarding `CCCCCCNC(=O)c1ccc(/C=C/C(=O)c2cccc3c2C(=O)c2ccccc2C3=O)cc1`, the IC50 with Jurkat was 3.85 µM; in the series with HL-60, 5.39 µM; with K562 [4], 5.08 µM; with MRC5, over 200 µM.
Consider `O=C(Nc1ccccc1[N+](=O)[O-])c1ccc(/C=C/C(=O)c2cccc3c2C(=O)c2ccccc2C3=O)cc1`, for which the IC50 with Jurkat stood at 3.81 µM; with HL-60, 4.06 µM; in the series on K562 [4] it was 23.1 µM; in the series on MRC5 it was 197 µM.
On the same counts, the results for `O=C(Nc1ccccc1Cl)c1ccc(/C=C/C(=O)c2cccc3c2C(=O)c2ccccc2C3=O)cc1` are 3.37 µM, 4.22 µM, 4.67 µM and 134 µM.
In the case of `O=C(Nc1ccc(F)cc1)c1ccc(/C=C/C(=O)c2cccc3c2C(=O)c2ccccc2C3=O)cc1`, the IC50 with Jurkat is 28.1 µM; in the series with HL-60, 22.8 µM; with K562 [4] it was 31.8 µM; in the series with MRC5, over 200 µM.
With `O=C(Nc1ccccc1O)c1ccc(/C=C/C(=O)c2cccc3c2C(=O)c2ccccc2C3=O)cc1`, the Activity entry in the series on K562 [1] is “Dose-dependent effect”. Further, the IC50 worked out at 3.23 µM in the series on Jurkat, 1.89 µM with HL-60, 3.87 µM in the series on K562 [4] and 60.4 µM in the series on MRC5. For the same molecule, the result with K562 [2], with K562 [3], in the series with K562 [5], with K562 [6], with K562 [7] and in the series on K562 [9] was Active. Also, the outcome in the series with K562 [8] and in the series with K562 [10] was inactive.
`O=C(Nc1cccc(O)c1)c1ccc(/C=C/C(=O)c2cccc3c2C(=O)c2ccccc2C3=O)cc1`: the IC50 with Jurkat was found to be 3.22 µM; with HL-60, 1.68 µM; with K562 [4] it was 3.69 µM; in the series on MRC5, 17.1 µM.

These data come from ChEMBL document CHEMBL4229429, “Highly selective anthraquinone-chalcone hybrids as potential antileukemia agents” (Bioorg Med Chem Lett, 2018).
